Test results published in the CheMixHub viscosity set.
± gives the uncertainty stated by the source.

Test: xn = mol fraction of the nth substance listed

CCOCCOCCOCC + COC(=O)OC
viscosity [mPa·s], 101.33 kPa
Settings | 298.15 K | 308.15 K | 318.15 K
x1 = 0.0109 | 0.604 ± 0.008 | 0.532 ± 0.007 | 0.48 ± 0.007
x1 = 0.0541 | 0.641 ± 0.009 | 0.563 ± 0.008 | 0.502 ± 0.007
x1 = 0.0935 | 0.677 ± 0.009 | 0.593 ± 0.008 | 0.523 ± 0.007
x1 = 0.1383 | 0.718 ± 0.009 | 0.624 ± 0.008 | 0.546 ± 0.008
x1 = 0.1877 | 0.76 ± 0.01 | 0.654 ± 0.009 | 0.571 ± 0.008
x1 = 0.2422 | 0.808 ± 0.01 | 0.689 ± 0.009 | 0.604 ± 0.008
x1 = 0.3409 | 0.886 ± 0.011 | 0.752 ± 0.01 | 0.651 ± 0.009
x1 = 0.4435 | 0.959 ± 0.012 | 0.811 ± 0.01 | 0.697 ± 0.009
x1 = 0.5274 | 1.021 ± 0.013 | 0.855 ± 0.011 | 0.727 ± 0.01
x1 = 0.6085 | 1.072 ± 0.013 | 0.894 ± 0.011 | 0.761 ± 0.01
x1 = 0.7154 | 1.136 ± 0.014 | 0.942 ± 0.012 | 0.798 ± 0.01
x1 = 0.8183 | 1.189 ± 0.015 | 0.986 ± 0.013 | 0.831 ± 0.011
x1 = 0.9068 | 1.229 ± 0.015 | 1.019 ± 0.013 | 0.857 ± 0.011
x1 = 0.9643 | 1.258 ± 0.016 | 1.037 ± 0.013 | 0.872 ± 0.011

COC(=O)c1ccccc1 + CCCCCCCC
101 kPa
Settings | viscosity [mPa·s]
298.15 K, x2 = 0.0356 | 1.698 ± 0.053
298.15 K, x2 = 0.0736 | 1.572 ± 0.049
298.15 K, x2 = 0.1081 | 1.474 ± 0.046
298.15 K, x2 = 0.1549 | 1.349 ± 0.042
298.15 K, x2 = 0.1926 | 1.265 ± 0.04
298.15 K, x2 = 0.2388 | 1.169 ± 0.037
298.15 K, x2 = 0.3669 | 0.961 ± 0.03
298.15 K, x2 = 0.4093 | 0.905 ± 0.028
298.15 K, x2 = 0.4513 | 0.855 ± 0.027
298.15 K, x2 = 0.5041 | 0.796 ± 0.025
298.15 K, x2 = 0.55 | 0.754 ± 0.024
298.15 K, x2 = 0.6034 | 0.707 ± 0.022
298.15 K, x2 = 0.6567 | 0.669 ± 0.021
298.15 K, x2 = 0.7105 | 0.634 ± 0.02
298.15 K, x2 = 0.7575 | 0.606 ± 0.019
298.15 K, x2 = 0.8645 | 0.558 ± 0.018
298.15 K, x2 = 0.9387 | 0.533 ± 0.017
308.15 K, x2 = 0.0548 | 1.358 ± 0.042
308.15 K, x2 = 0.0935 | 1.263 ± 0.039
308.15 K, x2 = 0.1329 | 1.177 ± 0.037
308.15 K, x2 = 0.1743 | 1.099 ± 0.034
308.15 K, x2 = 0.216 | 1.026 ± 0.032
308.15 K, x2 = 0.2531 | 0.967 ± 0.03
308.15 K, x2 = 0.2946 | 0.909 ± 0.029
308.15 K, x2 = 0.341 | 0.852 ± 0.027
308.15 K, x2 = 0.3823 | 0.806 ± 0.025
308.15 K, x2 = 0.4247 | 0.763 ± 0.024
308.15 K, x2 = 0.4738 | 0.719 ± 0.023
308.15 K, x2 = 0.5182 | 0.685 ± 0.022
308.15 K, x2 = 0.5728 | 0.645 ± 0.02
308.15 K, x2 = 0.6245 | 0.612 ± 0.019
308.15 K, x2 = 0.6742 | 0.583 ± 0.018
308.15 K, x2 = 0.7274 | 0.558 ± 0.018
308.15 K, x2 = 0.774 | 0.536 ± 0.017
308.15 K, x2 = 0.8351 | 0.512 ± 0.016
308.15 K, x2 = 0.9135 | 0.486 ± 0.016
318.15 K, x2 = 0.0668 | 1.147 ± 0.036
318.15 K, x2 = 0.0719 | 1.139 ± 0.036
318.15 K, x2 = 0.112 | 1.068 ± 0.033
318.15 K, x2 = 0.1404 | 1.022 ± 0.032
318.15 K, x2 = 0.1952 | 0.94 ± 0.029
318.15 K, x2 = 0.2418 | 0.876 ± 0.027
318.15 K, x2 = 0.2828 | 0.823 ± 0.026
318.15 K, x2 = 0.3337 | 0.764 ± 0.024
318.15 K, x2 = 0.3678 | 0.729 ± 0.023
318.15 K, x2 = 0.4175 | 0.682 ± 0.022
318.15 K, x2 = 0.463 | 0.644 ± 0.02
318.15 K, x2 = 0.5158 | 0.605 ± 0.019
318.15 K, x2 = 0.5624 | 0.576 ± 0.018
318.15 K, x2 = 0.6149 | 0.548 ± 0.017
318.15 K, x2 = 0.6664 | 0.525 ± 0.017
318.15 K, x2 = 0.7241 | 0.502 ± 0.016
318.15 K, x2 = 0.7767 | 0.485 ± 0.015
318.15 K, x2 = 0.8373 | 0.468 ± 0.015
318.15 K, x2 = 0.8921 | 0.453 ± 0.015

COC(=O)c1ccccc1 + c1ccccc1
viscosity [mPa·s], 101 kPa
Settings | x1 = 0.0773 | x1 = 0.1534 | x1 = 0.2362 | x1 = 0.3252 | x1 = 0.4217 | x1 = 0.5176 | x1 = 0.6241 | x1 = 0.7379 | x1 = 0.8662
303.15 K | 0.613 ± 0.011 | 0.675 ± 0.011 | 0.75 ± 0.01 | 0.835 ± 0.012 | 0.929 ± 0.012 | 1.043 ± 0.012 | 1.165 ± 0.013 | 1.305 ± 0.013 | 1.482 ± 0.014
313.15 K | 0.543 ± 0.011 | 0.588 ± 0.011 | 0.645 ± 0.011 | 0.71 ± 0.01 | 0.784 ± 0.012 | 0.874 ± 0.012 | 0.985 ± 0.012 | 1.107 ± 0.013 | 1.245 ± 0.013

COC(=O)c1ccccc1 + CCCCCCC
viscosity [mPa·s], 101.3 kPa
Settings | x1 = 0.0999 | x1 = 0.196 | x1 = 0.3001 | x1 = 0.3974 | x1 = 0.5004 | x1 = 0.5978 | x1 = 0.6984 | x1 = 0.8033 | x1 = 0.9017
298.15 K | 0.425 ± 0.004 | 0.464 ± 0.005 | 0.533 ± 0.005 | 0.601 ± 0.005 | 0.701 ± 0.006 | 0.814 ± 0.007 | 0.968 ± 0.008 | 1.183 ± 0.01 | 1.435 ± 0.012
308.15 K | 0.382 ± 0.004 | 0.418 ± 0.004 | 0.472 ± 0.005 | 0.535 ± 0.005 | 0.616 ± 0.006 | 0.708 ± 0.006 | 0.839 ± 0.007 | 1.008 ± 0.009 | 1.197 ± 0.01
318.15 K | 0.346 ± 0.004 | 0.378 ± 0.004 | 0.422 ± 0.004 | 0.475 ± 0.005 | 0.539 ± 0.005 | 0.62 ± 0.006 | 0.72 ± 0.006 | 0.86 ± 0.008 | 1.024 ± 0.009

CCOC(=O)CCl + Cc1ccccc1
viscosity [mPa·s], 101.3 kPa
Settings | x1 = 0.1004 | x1 = 0.207 | x1 = 0.299 | x1 = 0.4013 | x1 = 0.5048 | x1 = 0.6083 | x1 = 0.6963 | x1 = 0.8022 | x1 = 0.9006
298.15 K | 0.594 ± 0.006 | 0.631 ± 0.007 | 0.671 ± 0.007 | 0.714 ± 0.007 | 0.768 ± 0.007 | 0.823 ± 0.008 | 0.878 ± 0.008 | 0.945 ± 0.008 | 1.02 ± 0.009
303.15 K | 0.561 ± 0.006 | 0.594 ± 0.006 | 0.63 ± 0.007 | 0.669 ± 0.007 | 0.719 ± 0.007 | 0.77 ± 0.007 | 0.818 ± 0.008 | 0.881 ± 0.008 | 0.947 ± 0.009
308.15 K | 0.528 ± 0.006 | 0.559 ± 0.006 | 0.59 ± 0.006 | 0.626 ± 0.007 | 0.671 ± 0.007 | 0.718 ± 0.007 | 0.758 ± 0.007 | 0.817 ± 0.008 | 0.873 ± 0.008

COC(=O)c1ccccc1 + CCCCCCCCCCCC
101 kPa
Settings | viscosity [mPa·s]
298.15 K, x2 = 0.082 | 1.662 ± 0.052
298.15 K, x2 = 0.1173 | 1.604 ± 0.05
298.15 K, x2 = 0.144 | 1.569 ± 0.049
298.15 K, x2 = 0.1894 | 1.521 ± 0.048
298.15 K, x2 = 0.2155 | 1.489 ± 0.047
298.15 K, x2 = 0.2495 | 1.456 ± 0.046
298.15 K, x2 = 0.2908 | 1.424 ± 0.045
298.15 K, x2 = 0.3295 | 1.395 ± 0.044
298.15 K, x2 = 0.3708 | 1.367 ± 0.043
298.15 K, x2 = 0.4625 | 1.325 ± 0.042
298.15 K, x2 = 0.5803 | 1.295 ± 0.041
298.15 K, x2 = 0.6336 | 1.286 ± 0.041
298.15 K, x2 = 0.6963 | 1.278 ± 0.041
298.15 K, x2 = 0.7551 | 1.279 ± 0.041
298.15 K, x2 = 0.837 | 1.291 ± 0.042
298.15 K, x2 = 0.9197 | 1.314 ± 0.043
308.15 K, x2 = 0.0354 | 1.452 ± 0.045
308.15 K, x2 = 0.0681 | 1.412 ± 0.044
308.15 K, x2 = 0.0984 | 1.376 ± 0.043
308.15 K, x2 = 0.126 | 1.347 ± 0.042
308.15 K, x2 = 0.1623 | 1.311 ± 0.041
308.15 K, x2 = 0.1958 | 1.282 ± 0.04
308.15 K, x2 = 0.2384 | 1.248 ± 0.039
308.15 K, x2 = 0.2693 | 1.226 ± 0.038
308.15 K, x2 = 0.3062 | 1.203 ± 0.038
308.15 K, x2 = 0.3476 | 1.182 ± 0.037
308.15 K, x2 = 0.3895 | 1.164 ± 0.037
308.15 K, x2 = 0.4361 | 1.146 ± 0.036
308.15 K, x2 = 0.485 | 1.131 ± 0.036
308.15 K, x2 = 0.5382 | 1.12 ± 0.036
308.15 K, x2 = 0.5886 | 1.112 ± 0.035
308.15 K, x2 = 0.65 | 1.108 ± 0.035
308.15 K, x2 = 0.7204 | 1.107 ± 0.036
308.15 K, x2 = 0.7849 | 1.11 ± 0.036
308.15 K, x2 = 0.8845 | 1.124 ± 0.037
318.15 K, x2 = 0.0445 | 1.219 ± 0.038
318.15 K, x2 = 0.0506 | 1.213 ± 0.038
318.15 K, x2 = 0.0779 | 1.183 ± 0.037
318.15 K, x2 = 0.1097 | 1.152 ± 0.036
318.15 K, x2 = 0.1388 | 1.126 ± 0.035
318.15 K, x2 = 0.1737 | 1.097 ± 0.034
318.15 K, x2 = 0.2067 | 1.072 ± 0.034
318.15 K, x2 = 0.2449 | 1.048 ± 0.033
318.15 K, x2 = 0.2814 | 1.025 ± 0.032
318.15 K, x2 = 0.3256 | 1.001 ± 0.032
318.15 K, x2 = 0.3648 | 0.983 ± 0.031
318.15 K, x2 = 0.4153 | 0.964 ± 0.03
318.15 K, x2 = 0.4635 | 0.95 ± 0.03
318.15 K, x2 = 0.5194 | 0.938 ± 0.03
318.15 K, x2 = 0.5726 | 0.931 ± 0.03
318.15 K, x2 = 0.6372 | 0.926 ± 0.03
318.15 K, x2 = 0.7 | 0.924 ± 0.03
318.15 K, x2 = 0.7739 | 0.929 ± 0.03
318.15 K, x2 = 0.8468 | 0.938 ± 0.03
